The text below walks through data of paper PMC6958375 (Pharmaceuticals, 2019).

“Also recorded” adds a separate entry of the source. Like-named read-outs stand apart in the source and are kept apart here.

What is called IC50 is the concentration at which inhibition is half-maximal. The viability is a per cent measure of how many cells are alive, often set against a control.

Data set [1] has as its system 1-7HB2 cells. The experiment in a line: Cell growth assay (MTS), normal cell line 1-7HB2. The format is cell-based. The settings on record: cell growth inhibition, 72 h of treatment, mean ± SE. The procedure:
(§1) Dr. Elda Tagliabue (Molecular Targeting Unit, Department of Experimental Oncology and Molecular Medicine, Fondazione Institute of Hospitalization and Scientific Care, National Cancer Institute, Milan, Italy) kindly provided us the human breast cancer cell lines: MDA-MB-231(ATCC: HTB-26—Rockville, MD, USA) and SUM 149 (SUM149PT—Asterand Bioscience Detroit, MI). The first was cultured in RPMI-1640 and the second was cultured in DMEM/F-12 supplemented with insulin (5 μg/mL). The cells were authenticated using the short tandem repeat profiling method in their Institute. Prof. Giulio Ghersi (STEBICEF Department, University of Palermo, Italy) kindly provided us the non-tumorigenic cell line 1-7HB2 (ECACC 10081201—Cancer Research Technology, London, UK) that was cultured in DMEM low glucose supplemented with hydrocortisone (5 μg/mL) and insulin (10 μg/mL). HL60, obtained from ATCC® (CCL-240, Rockville, MD, USA), and its variant HL60R, obtained by exposure to gradually increasing concentrations of doxorubicin, were cultured in RPMI-1640. All media were supplemented with 10% heat-inactivated fetal calf serum, 2 mM L-glutamine, 100 U/mL penicillin and 100 μg/mL streptomycin (all reagents were from EuroClone S.p.A., Milan, Italy; GE Healthcare Life Sciences, Logan, UT, USA). All cell lines were cultured in a humidified atmosphere at 37 °C in 5% CO2.
(§2) The cells were seeded at 2 × 10^4 cells/well onto 96-well plates and incubated at 37 °C overnight; at time 0, the medium was replaced with fresh complete medium supplemented of compounds at the indicated concentrations. Following 72 h of treatment, 16 μL of a commercial solution obtained from Promega Corporation (Madison, WI, USA) containing 3-(4,5-dimethylthiazol- 2-yl)-5-(3-carboxy methoxyphenyl)-2-(4-sulphophenyl)-2H-tetrazolium (MTS) and phenazine ethosulfate were added. After a incubation in a humidified atmosphere at 37 °C in 5% CO2, the bioreduction of MTS dye was evaluated by measuring the absorbance of each well at 490 nm, using a microplate absorbance reader (iMark Microplate Reader; Bio-Rad Laboratories, Inc., Hercules, CA, USA). Cell growth inhibition was expressed as a percentage (mean ± SE) of the absorbance of the control cells.

Data set [2] relates to MDA-MB-231 cells. Nature of the data set: Cell growth assay (MTS), MDA-MB-231. The settings on record: 72 h of treatment, mean ± SE. The format is cell-based, human. The procedure: as §1, §2
Data set [3] relates to SUM 149 cells. The experiment in a line: Cell growth assay (MTS), SUM 149. The format is cell-based, human. The conditions noted are these: 72 h of treatment, mean ± SE. The procedure:
as §1, §2

The subject of data set [4] is HL60 cells. The experiment in a line: Cell growth assay, HL60. The format is cell-based. The protocol: as §1, §2
For data set [5], the system named is HL60R cells. The experiment in a line: Cell growth assay, multidrug resistant HL60R. The conditions noted are these: read-out: HL60 R IC50. The data set is classed as cell-based. The protocol:
as §1, §2

For data set [6], the system named is NF-κB (p65 subunit). Nature of the data set: NF-κB DNA-binding activity (TransAM), MDA-MB-231 nuclear extracts. The format is cell-based, human. The settings on record: MDA-MB-231, compounds at IC50 values, 8 h of treatment. From the text: (§3) The DNA-binding capacity of NF-κB (p65 subunit) was defined in the nuclear extracts of SUM 149 and MDA-MB-231 cells using the TransAM NF-κB and Nuclear Extract kits (Active Motif, Carlsbad, CA, USA). The determination of binding capacity was based on a 96-well plate, on which an oligonucleotide containing the NF-κB consensus binding site was fixed. […] After addition of a horseradish peroxidase-conjugated secondary antibody, a sensitive colorimetric readout was quantified by densitometry (iMark Microplate Reader; Bio-Rad Laboratories, Inc.). The control of specificity of the assay carried out according to the indications of manufacturer’s protocol. The results were expressed as arbitrary units: one unit indicated the DNA binding capacity exerted by 2.5 μg whole cell extract from Jurkat cells/microgram of protein from the nuclear extracts. Jurkat cells, stimulated with 12-O-tetradecanoylphorbol-13-acetate and calcium ionophore, are the positive control for NF-κB p65 activation.

Data set [7] deals with IAP1. The experiment in a line: Western blot of IAP1 in MDA-MB-231 cells. The format is cell-based, human. The conditions noted are these: MDA-MB-231, 8 h, compound at IC50. From the text: (§4) In order to verify if the three analogues alter the expression of some targets of NF-κB, like curcumin, western blot analysis was used. […] In line with the results of NF-κB DNA-binding activity inhibition, only Compounds 1 and 3 caused a decrease of expression of some targets in the same cell lines. In particular, in SUM 149 cells only Compound 3 caused a decreased expression of Survivin (a 55% of reduction respect to control) and Bcl-2 (a 48% of reduction respect to control), while in MDA-MB-231 cells only Compound 1 caused a reduction of IAP1 expression (a 32% of reduction with respect to the control) (Figure 8 and Figure 9).
(§5) Whole-cell lysates were obtained from breast cancer cells using RIPA buffer (Santa Cruz Biotechnology Inc., Dallas, TX, USA) and 25 μg protein was subjected to 10% SDS-PAGE and transferred to Hybond-P membranes (GE Healthcare Europe GmbH, Freiburg, Germany). Filters were incubated with primary antibodies raised against β-actin (Sigma-Aldrich Srl, Milan, Italy), Bcl-2 (Santa Cruz Biotechnology Inc., Dallas, TX, USA), XIAP (Cell Signaling Technology, Danvers, MA), Survivin (Novus Biologicals, Littleton, CO), IAP1 (Cell Signaling Technology, Danvers, MA). […]
(§6) Immunoblots were quantified by densitometry, the data were expressed as arbitrary units (protein/β-actin).
A general note: A western blot detects proteins with antibodies after separation by electrophoresis.

In data set [8] the test system is SUM 149 cells. The experiment in a line: Pro-oxidant effect by cell counting with NAC, SUM 149. The settings on record: for Cell Viability (%): SUM 149, cell counting, mean ± SE. The procedure: (§7) Pro-oxidant effects were examined by cell counting, adding N-acetyl-L-cysteine (NAC), an antioxidant molecule, 1h before compounds. Results were expressed as mean ± standard error (SE) of at least three different experiments performed in duplicate. All the chemicals were supplied by Sigma Aldrich Srl, Milan, Italy.

Data set [9] relates to MDA-MB-231 cells. The experiment in a line: Pro-oxidant effect by cell counting with NAC, MDA-MB-231. The protocol: as §7
The test system of data set [10] is NF-κB (p65 subunit). The experiment in a line: NF-κB DNA-binding activity (TransAM), SUM 149 nuclear extracts. The data set is classed as cell-based, human. The conditions noted are these: SUM 149, compounds at IC50 values, 24 h of treatment.
Text: as §3

Data set [11] concerns Bcl-2. The experiment in a line: Western blot of Bcl-2 in SUM 149 cells. The data set is classed as cell-based, human. The settings on record: SUM 149, 24 h, compound at IC50.
Text: as §4, §5, §6

A short description of data set [12]: DPPH free radical scavenging assay. The format is biochemical. The settings on record: DPPH reduction, 1 h in the dark at room temperature, absorbance 517 nm. The protocol: The antioxidant activity was evaluated by the DPPH stable radical method. Trolox (6-hydroxy-2,5,7,8-tetramethyl-chroman-2-carboxylic acid) curve was used as the positive control. 100 μL of sample was added to aliquots of a solution made up with DPPH (4.8 mg) in MeOH (200 mL), and the mixture was incubated in the dark, for 1 h at room temperature. The absorbance was measured using a UV-VIS spectrophotometer, at 517 nm. The results were plotted as the percentage of absorbance disappearance at 517 nm [(1-A/A0) × 100] against the amount of sample divided by the initial concentration of DPPH; lower absorbance values of reaction mixture indicate higher free radical scavenging activity. ED50 corresponds to micrograms of fraction able to consume half the amount of free radical divided by micromoles of initial DPPH. The results were expressed as antiradical capacity (ARC), which is the inverse of ED50. Each point was acquired in triplicate.

For data set [13], the system named is Survivin. The experiment in a line: Western blot of Survivin in SUM 149 cells. The settings on record: SUM 149, 24 h, compound at IC50. The data set is classed as cell-based, human.
Text: as §4, §5, §6

Setting [14] is: acute promyelocytic leukemia HL60, cell growth assay, read-out: HL60 IC50.
Setting [15] is: multidrug resistant variant of HL60, cell growth assay.
[16] abbreviates: cell growth inhibition, read-out: SUM149 IC50 (converted).

For the compound `COc1cc(/C=C/C(O)=C/C(=O)/C=C/c2ccc(OCc3ccc(CBr)cc3)c(OC)c2)ccc1O` [Compound 4, (1E,6E)-1-(4-hydroxy-3-methoxyphenyl)-7-[3-methoxy-4(4-methylbromobenzyl)oxyphenyl] hepta-1,6-diene-3,5-dione], the “1-7HB2 IC50” value in [1] is on record as “not reached”. Besides, in [2] (cell growth inhibition), the “MDA-MB-231 IC50” value was “not reached”. Also, the “SUM149 IC50” value in data set [3] (cell growth inhibition) was “not reached”.

“(1E,6E)-1-(4-hydroxy-3-methoxyphenyl)-7-(3-methoxy-4-propargyloxyphenyl)hepta-1,6-diene -3,5-dione [Compound 1]”: the 50% inhibitory concentration (IC50) in [1] was 20 µM; in [2] (cell growth inhibition), 18 µM; in data set [4] (setting [14]) it was 14 µM; in data set [5] (setting [15]) it was 7 µM; in [3] (setting [16]) it was 11.2 µM. Further, the “NF-κB DNA-binding activity” value in data set [6] was “NF-κB inhibitors; also recorded: greater effect than curcumin”. In addition, the “reduction of IAP1 expression with respect to the control” value in data set [7] was 32%.

As to `COc1cc(/C=C/C(=O)CC(=O)/C=C/c2ccc(O)c(OC)c2)ccc1O` [Curcumin, reference compound], the 50% inhibitory concentration (IC50) was 37.5 ± 0.51 µM in [1]; 25.5 ± 0.35 µM in data set [2] (Homo sapiens, MDA-MB-231, cell growth inhibition); 47.5 µM in data set [4] (Homo sapiens, HL-60, read-out: HL60 IC50); 40.5 µM in data set [5] (HL60R); 14 ± 0.29 µM in data set [3] (Homo sapiens, SUM149, cell growth inhibition).

With `CC(=O)N[C@@H](CS)C(=O)O` [NAC, N-acetyl-L-cysteine], the viability at 2000 µM in data set [8] (Homo sapiens, SUM149, read-out: Cell Viability (%)) is 100 ± 9.5%; in data set [9] (Homo sapiens, MDA-MB-231, read-out: Cell Viability (%)), 87 ± 3.9%.

As for `COc1cc(/C=C/C(=O)/C=C(O)/C=C/c2ccc(OCc3ccc(CBr)cc3)c(OC)c2)ccc1OCc1ccc(CBr)cc1` [Compound 5, (1E,6E)-1,7-bis [3-methoxy-4(4-methylbromobenzyl)oxyphenyl]hepta-1,6-diene-3,5-dione], the “1-7HB2 IC50” value in data set [1] was “not reached”. In data set [2] (cell growth inhibition), the “MDA-MB-231 IC50” value is “not reached”. Further, in [3] (cell growth inhibition), the “SUM149 IC50” value is given as “not reached”.

Turning to “4-phenylsulfanyl-(1E,6E)-1,7-bis(4-hydroxy-3-methoxyphenyl)hepta-1,6-diene-3,5-dione [Compound 3]”, the “NF-κB DNA-binding activity” value in data set [10] was “stronger decrease than curcumin”; in [6], “NF-κB inhibitors”. Moreover, the “Cell Viability (%)” value in [8] (NAC 2 mM 1 h before compound at its IC50) is on record as 14.0 ± 4.6%; in data set [8] (compound alone at its IC50 (curc 14 μM, 1 11 μM, 2 13 μM, 3 14 μM)), 34.0 ± 2.1%; in data set [9] (MDA-MB-231, cell counting, compound alone at its IC50 (curc 25 μM, 1 18 μM, 2 20 μM, 3 15 μM), mean ± SE), 25.6 ± 0.7%. Also, the IC50 in data set [1] was 12.5 ± 0.43 µM; in [2] (cell growth inhibition), 15 ± 0.85 µM; in data set [4] (setting [14]), under 1 µM; in data set [5] (setting [15]), 6.7 µM; in data set [3] (setting [16]) it was 13.5 ± 0.88 µM. The “reduction of Bcl-2 expression respect to control” value in data set [11] was 48%. For the same compound, the ED50 in data set [12] was found to be 19.2 µM. Further, in data set [13], the “reduction of Survivin expression respect to control” value is 55%.

`C#CCOc1ccc(/C=C/C(=O)CC(=O)/C=C/c2ccc(OCC#C)c(OC)c2)cc1OC` [Compound 2, (1E,6E)-1,7-bis(3-methoxy-4-propargyloxyphenyl)hepta-1,6-diene-3,5-dione]: in data set [1], the “1-7HB2 IC50” value was “not reached”. Besides, the IC50 in data set [2] (cell growth inhibition) was 20 µM; in [4] (setting [14]) it was 17 µM; in data set [5] (setting [15]), 9 µM; in data set [3] (setting [16]), 13.2 ± 1.59 µM.

In the case of `Cc1c(C)c2c(c(C)c1O)CCC(C)(C(=O)O)O2` (stereo not drawn) [Trolox, 6-hydroxy-2,5,7,8-tetramethyl-chroman-2-carboxylic acid, reference compound], in [12], the ED50 was 12.0 µM.
